The source of these data is patent US8163909B2, “Substituted hydroxyethyl amine compounds as beta-secretase modulators and methods of use” (Amgen Inc., priority 2007, dated 2012).

Series [1] deals with Beta Secretase enzyme (BACE) (Homo sapiens, UniProt P56817). The experiment in a line: In vitro enzymatic BACE FRET (fluorescence resonance energy transfer) assay.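 Further: fluorescence read after 1 h with 50 nM quenched peptide substrate spanning the BACE cleavage site, in pH 4.2 acetate buffer containing 10% DMSO and nonionic detergent.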 The format is biochemical. The following applies: BACE enzyme assay IC50; read-out: BACE1 FRET assay.
Beta Secretase enzyme (BACE), sequence (P56817 46-501): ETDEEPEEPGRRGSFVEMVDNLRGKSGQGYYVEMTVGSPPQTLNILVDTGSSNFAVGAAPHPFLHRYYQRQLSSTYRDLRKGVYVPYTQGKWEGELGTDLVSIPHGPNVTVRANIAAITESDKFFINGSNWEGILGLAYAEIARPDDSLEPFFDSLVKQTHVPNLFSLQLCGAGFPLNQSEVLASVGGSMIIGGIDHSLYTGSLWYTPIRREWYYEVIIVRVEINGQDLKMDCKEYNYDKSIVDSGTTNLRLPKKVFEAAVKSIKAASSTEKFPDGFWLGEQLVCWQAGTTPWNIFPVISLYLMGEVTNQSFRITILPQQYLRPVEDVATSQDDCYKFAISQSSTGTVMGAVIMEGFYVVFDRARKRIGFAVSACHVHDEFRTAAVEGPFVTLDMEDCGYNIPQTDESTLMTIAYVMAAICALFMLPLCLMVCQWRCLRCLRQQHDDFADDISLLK
Series [2] deals with Aβ40 in conditioned medium of cells stably expressing Amyloid Precursor Protein (APP). The series can be described thus: In vitro BACE cell-based assay (Aβ40 in conditioned medium, sandwich ELISA).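 Further: compounds added as a dilution series, secreted peptide quantified by europium time-resolved fluorescence readout, potency fitted from percent of control versus compound concentration.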 The following applies: Homo sapiens, HEK293, HEK cell-based assay IC50; read-out: HEK cell assay. For orientation: In an ELISA, binding on a coated surface is turned into a signal by an enzyme label.

The target in the next series is CYP3A4 (CYP3A) (Homo sapiens, UniProt P08684). The experiment in a line: in vitro. The following applies: microsomes, pH 7.4.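 Further: inhibition of CYP3A-mediated 1-hydroxymidazolam formation after 10 min incubation with NADPH, quantified by HPLC MS relative to metabolite produced without test compound.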
CYP3A4 (CYP3A), sequence (P08684 2-503): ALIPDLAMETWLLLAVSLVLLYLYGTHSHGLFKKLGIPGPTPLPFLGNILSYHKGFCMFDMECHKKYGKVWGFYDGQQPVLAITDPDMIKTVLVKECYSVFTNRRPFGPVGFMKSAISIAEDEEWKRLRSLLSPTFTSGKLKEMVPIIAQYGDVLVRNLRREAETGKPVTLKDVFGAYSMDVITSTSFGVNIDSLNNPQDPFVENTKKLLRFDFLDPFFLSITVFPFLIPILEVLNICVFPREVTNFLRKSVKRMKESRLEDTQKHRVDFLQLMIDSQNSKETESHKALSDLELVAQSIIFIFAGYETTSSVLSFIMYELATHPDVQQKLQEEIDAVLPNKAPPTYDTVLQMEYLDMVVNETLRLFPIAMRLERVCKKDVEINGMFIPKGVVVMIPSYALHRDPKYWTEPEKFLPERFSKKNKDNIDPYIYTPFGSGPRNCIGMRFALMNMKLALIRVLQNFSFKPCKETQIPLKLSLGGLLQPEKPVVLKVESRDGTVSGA
Series [3] can be described thus: Microsomal stability assay, rat liver microsomes.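 Further: rat liver microsomes (0.25 mg/mL) with about 1 µM compound plus 1 mM NADPH, pH 7.4, 37 °C for 30 min, parent left measured by LC-MS/MS against 0 min.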 The following applies: rat liver microsomes.
The nature of series [4]: Microsomal stability assay, human liver microsomes.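 Further: pooled human liver microsomes at 0.25 mg/mL with 1 µM compound and NADPH at 37 °C, pH 7.4, for 30 min, unchanged parent quantified by LC-MS/MS against the 0 min sample.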 The following applies: human liver microsomes.
For the next series, the target named is CYP2D6 (Homo sapiens, UniProt P10635). The experiment in a line: CYP2D6 inhibition assay (bufuralol, pooled human liver microsomes). Particulars: 2D6 IC50 (uM), CYP2D6 inhibition. In general terms: Liver microsomes are vesicles of endoplasmic reticulum, rich in cytochrome P450 enzymes.
CYP2D6, sequence (P10635 whole entry): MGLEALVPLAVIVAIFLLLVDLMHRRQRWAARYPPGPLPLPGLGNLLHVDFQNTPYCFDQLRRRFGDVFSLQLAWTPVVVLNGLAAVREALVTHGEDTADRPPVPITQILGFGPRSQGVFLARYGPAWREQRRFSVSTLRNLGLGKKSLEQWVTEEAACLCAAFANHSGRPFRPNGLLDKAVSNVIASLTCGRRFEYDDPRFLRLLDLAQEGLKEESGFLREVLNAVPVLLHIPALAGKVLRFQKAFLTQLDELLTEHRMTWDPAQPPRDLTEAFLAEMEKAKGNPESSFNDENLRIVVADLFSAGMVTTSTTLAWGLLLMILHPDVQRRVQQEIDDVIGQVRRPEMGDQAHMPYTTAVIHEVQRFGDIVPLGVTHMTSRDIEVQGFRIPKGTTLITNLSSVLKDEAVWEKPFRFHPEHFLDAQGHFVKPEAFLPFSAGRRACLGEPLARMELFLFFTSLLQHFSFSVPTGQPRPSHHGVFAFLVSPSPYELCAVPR

Turning to `CO[C@H](C)C(=O)N[C@@H](Cc1cc(F)cc(F)c1)[C@H](O)CN[C@H]1CC2(CCC2)Oc2c1cc(CC(C)C)nc2Cl` [compound 686], the IC50 in series [1] is 3 nM; in series [2], 52 nM; at CYP3A4 (CYP3A) it was 200 nM; against CYP2D6, 6.1 µM. In addition, the “RLM” value in series [3] is 399 µL/min/mg. The “HLM” value in series [4] is 921 µL/min/mg.
Regarding `CO[C@H](C)C(=O)N[C@@H](Cc1cc(F)cc(F)c1)[C@H](O)CN[C@H]1CC2(CCC2)Oc2cnc(CC(C)C)cc21` [compound 688], the IC50 in series [1] is 9 nM; in series [2] it was 36 nM; against CYP3A4 (CYP3A) it was 200 nM; at CYP2D6, 3 µM. For the same compound, the “RLM” value in series [3] is 399 µL/min/mg. Also, in series [4], the “HLM” value was found to be 921 µL/min/mg.
In the case of `C#Cc1cc2c(c(-n3ccnc3)c1)OC1(CCC1)C[C@@H]2NC[C@@H](O)[C@H](Cc1cc(F)cc(F)c1)NC(=O)COC` [compound 689], the IC50 in series [1] is 38 nM; in series [2], 27 nM; at CYP3A4 (CYP3A) it was ≤ 30 nM; against CYP2D6 it was 0.2 µM. Also, the “RLM” value in series [3] stood at 44.5 µL/min/mg. Moreover, the “HLM” value in series [4] was 18.5 µL/min/mg.
In the case of `Cc1cccc(CN2CCO[C@H](C(=O)N[C@@H](Cc3ccc(F)cc3)[C@H](O)CN[C@H]3CC4(CCC4)Oc4ncc(CC(C)(C)C)cc43)C2)c1` [compound 691], the IC50 is 78 nM in series [1], 104 nM in series [2], 200 nM at CYP3A4 (CYP3A) and 3 µM at CYP2D6. Besides, in series [3], the “RLM” value is 426 µL/min/mg. The “HLM” value in series [4] was found to be 543 µL/min/mg.
For the compound `Cc1ccccc1CN1CCO[C@@H](C(=O)N[C@@H](Cc2ccc(F)cc2)[C@H](O)CN[C@H]2CC3(CCC3)Oc3ncc(CC(C)(C)C)cc32)C1` [compound 692], the IC50 in series [1] is 13 nM; in series [2] it was 24 nM; at CYP3A4 (CYP3A), 200 nM; against CYP2D6, 5.1 µM. The “RLM” value in series [3] was found to be 590 µL/min/mg. In addition, the “HLM” value in series [4] stood at 706 µL/min/mg.
Take `CC(=O)N[C@@H](Cc1ccc(-c2cscn2)cc1)[C@H](O)CN[C@H]1CC2(CCC2)Oc2ncc(CC(C)(C)C)cc21` [compound 693]: the IC50 in series [1] was determined as 43 nM; in series [2], 60 nM; against CYP3A4 (CYP3A) it was 200 nM; at CYP2D6, 2.9 µM. In addition, the “RLM” value in series [3] turned out to be 63 µL/min/mg. For the same compound, the “HLM” value in series [4] turned out to be 110 µL/min/mg.
Turning to `CC(=O)N[C@@H](Cc1ccc(-c2cncs2)cc1)[C@H](O)CN[C@H]1CC2(CCC2)Oc2ncc(CC(C)(C)C)cc21` [compound 694], the IC50 in series [1] amounted to 74 nM; in series [2] it was 71 nM; at CYP3A4 (CYP3A) it was 200 nM; against CYP2D6, 0.3 µM. Besides, in series [3], the “RLM” value came to 66 µL/min/mg. For the same compound, the “HLM” value in series [4] came out at 82 µL/min/mg.
`Cc1ccccc1CN1CCO[C@H](C(=O)N[C@@H](Cc2ccc(F)cc2)[C@H](O)CN[C@H]2CC3(CCC3)Oc3ncc(CC(C)(C)C)cc32)C1` [compound 697]: the IC50 turned out to be 87 nM in series [1], 143 nM in series [2], 200 nM against CYP3A4 (CYP3A) and 2.7 µM against CYP2D6. Also, in series [3], the “RLM” value was 399 µL/min/mg. Moreover, in series [4], the “HLM” value was 775 µL/min/mg.
Consider `COCC(=O)N[C@H](Cc1cccc(-c2nccs2)c1)[C@@H](O)CN[C@H]1CC2(CCC2)Oc2ccc(CC(C)(C)C)cc21` [compound 701, N-((1R,2S)-3-(((4S)-6-(2,2-dimethylpropyl)-3,4-dihydrospiro[chromene-2,1′-cyclobutan]-4-yl)amino)-2-hydroxy-1-(3-(1,3-thiazol-2-yl)benzyl)propyl)-2-methoxyacetamide], for which the IC50 was 8 nM in series [1], 33 nM in series [2], 200 nM against CYP3A4 (CYP3A) and 0.7 µM on CYP2D6. Moreover, the “RLM” value in series [3] is 160 µL/min/mg. Moreover, the “HLM” value in series [4] is 137 µL/min/mg.
`CC(=O)N[C@@H](Cc1ccc(F)cc1)[C@H](O)CN[C@H]1CC2(CCNC2)Oc2cnc(CC(C)(C)C)cc21` (stereo partly drawn) [compound 702]: the IC50 was found to be 36400 nM in series [1], 454 nM in series [2], 1800 nM on CYP3A4 (CYP3A) and 13.5 µM at CYP2D6. Besides, the “RLM” value in series [3] was 26 µL/min/mg. The “HLM” value in series [4] came to 14 µL/min/mg.
Take `CO[C@H](C)C(=O)N[C@@H](Cc1cc(F)cc(F)c1)[C@H](O)CN[C@H]1CC2(CCC2)Oc2c1cc(CC(C)C)nc2-c1nccn1C` [compound 704]: the IC50 is 30 nM in series [1], 24 nM in series [2], ≤ 30 nM at CYP3A4 (CYP3A) and ≥ 27 µM against CYP2D6. In addition, in series [3], the “RLM” value was found to be 44 µL/min/mg. In addition, in series [4], the “HLM” value is 20 µL/min/mg.
Regarding `COCC(=O)N[C@@H](Cc1cc(F)cc(F)c1)[C@H](O)CN[C@H]1CC2(CCC2)Oc2c1cc(C1CC1)cc2-n1ccnc1` [compound 706], the IC50 in series [1] was found to be 62 nM; in series [2], 20 nM; against CYP3A4 (CYP3A), 100 nM; against CYP2D6 it was 0.3 µM. In addition, the “RLM” value in series [3] stood at 33 µL/min/mg. For the same compound, the “HLM” value in series [4] was determined as 41 µL/min/mg.
`CO[C@H](C)C(=O)N[C@@H](Cc1cc(F)cc(F)c1)[C@H](O)CN[C@H]1CC2(CCC2)Oc2c1cc(C1CC1)cc2-n1ccnc1` [compound 707]: the IC50 in series [1] was 114 nM; in series [2] it was 28 nM; against CYP3A4 (CYP3A) it was ≤ 30 nM; on CYP2D6, 0.6 µM. Also, in series [3], the “RLM” value was 39 µL/min/mg. Further, in series [4], the “HLM” value turned out to be 14 µL/min/mg.
On to `Cc1ccc(CN2CCO[C@H](C(=O)N[C@@H](Cc3ccc(F)cc3)[C@H](O)CN[C@H]3CC4(CCC4)Oc4ncc(CC(C)(C)C)cc43)C2)cc1` [compound 708], for which the IC50 in series [1] was determined as 154 nM; in series [2], 257 nM; at CYP3A4 (CYP3A) it was 200 nM; against CYP2D6 it was 6.8 µM. Moreover, the “RLM” value in series [3] was found to be 278 µL/min/mg. In addition, the “HLM” value in series [4] stood at 310 µL/min/mg.
For the compound `Cc1ccc(CN2CCO[C@@H](C(=O)N[C@@H](Cc3ccc(F)cc3)[C@H](O)CN[C@H]3CC4(CCC4)Oc4ncc(CC(C)(C)C)cc43)C2)cc1` [compound 709], the IC50 in series [1] was 28 nM; in series [2], 38 nM; on CYP3A4 (CYP3A), 300 nM; against CYP2D6 it was 3.7 µM. In series [3], the “RLM” value was determined as 375 µL/min/mg. Besides, in series [4], the “HLM” value was 614 µL/min/mg.
For the compound `CC(C)(C)Cc1cnc2c(c1)[C@@H](NC[C@@H](O)[C@H](Cc1ccc(F)cc1)NC(=O)[C@@H]1CN(Cc3ccccc3)CCO1)CC1(CCC1)O2` [compound 711], the IC50 in series [1] was determined as 40 nM; in series [2] it was 124 nM; against CYP3A4 (CYP3A), 300 nM; at CYP2D6, 8.2 µM. The “RLM” value in series [3] was 399 µL/min/mg. Also, the “HLM” value in series [4] is 706 µL/min/mg.
Turning to `C#Cc1cc(F)cc(C[C@H](NC(C)=O)[C@H](O)CN[C@H]2CC3(CCC3)Oc3ncc(CC(C)(C)C)cc32)c1` [compound 713, N-((1S,2R)-3-(((4′S)-6′-(2,2-dimethylpropyl)-3′,4′-dihydrospiro[cyclobutane-1,2′-pyrano[2,3-b]pyridin]-4′-yl)amino)-1-(3-ethynyl-5-fluorobenzyl)-2-hydroxypropyl)acetamide], the IC50 in series [1] is 3 nM; in series [2], 15 nM; against CYP3A4 (CYP3A), 100 nM; at CYP2D6, 1.2 µM. Further, the “RLM” value in series [3] came out at 58 µL/min/mg. Moreover, the “HLM” value in series [4] turned out to be 75 µL/min/mg.
